# Experimental data: article PMC10661859 (Science signaling, 2023)
# Structures can show the parent of a compound that is named as a salt.
# Biological target: T1, His-PtcC (Ptc C-terminal tail) (Drosophila melanogaster, UniProt P18502)
# T1 sequence (P18502 1105-1286): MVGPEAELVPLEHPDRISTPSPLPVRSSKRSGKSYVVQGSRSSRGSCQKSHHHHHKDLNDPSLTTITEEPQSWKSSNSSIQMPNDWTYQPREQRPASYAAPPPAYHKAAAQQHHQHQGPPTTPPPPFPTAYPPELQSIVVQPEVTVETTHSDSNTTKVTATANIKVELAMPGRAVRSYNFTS
# Test: solid-phase lipid dot blot
# Format: binding
# Conditions: 2 ul of 50 uM lipid on PVDF; 1 ug/ml protein in PBS; 4 C overnight
smiles,measurement,value
"CCCCCCCCCCCCCCCCCC(=O)OC[C@H](COP(=O)(O)O)OC(=O)CCCCCCCCCCCCCCCCC [DSPA, 1,2-Distearoyl-sn-glycero-3-phosphate (sodium salt)]",solid-phase lipid dot blot,"His-PtcC interacted only with DSPA and DPPA, both of which are saturated forms of PA"
